# Experimental data reported in patent US12281109B2 (Merck Sharp & Dohme LLC, priority 2019, dated 2025).
# Key:
# [1] = molecular target: T1, HDAC6 (Homo sapiens, UniProt Q9UBN7); test: Human HDAC enzyme inhibitor Fluor-De-Lys assay, HDAC6; type: biochemical; details: 1.3 nM total enzyme, 2.5 μM substrate BML-KI104, 3 hours pre-incubation, 60 min reaction, 23° C., 4-parameter fit
# T1 sequence (Q9UBN7 1-1215): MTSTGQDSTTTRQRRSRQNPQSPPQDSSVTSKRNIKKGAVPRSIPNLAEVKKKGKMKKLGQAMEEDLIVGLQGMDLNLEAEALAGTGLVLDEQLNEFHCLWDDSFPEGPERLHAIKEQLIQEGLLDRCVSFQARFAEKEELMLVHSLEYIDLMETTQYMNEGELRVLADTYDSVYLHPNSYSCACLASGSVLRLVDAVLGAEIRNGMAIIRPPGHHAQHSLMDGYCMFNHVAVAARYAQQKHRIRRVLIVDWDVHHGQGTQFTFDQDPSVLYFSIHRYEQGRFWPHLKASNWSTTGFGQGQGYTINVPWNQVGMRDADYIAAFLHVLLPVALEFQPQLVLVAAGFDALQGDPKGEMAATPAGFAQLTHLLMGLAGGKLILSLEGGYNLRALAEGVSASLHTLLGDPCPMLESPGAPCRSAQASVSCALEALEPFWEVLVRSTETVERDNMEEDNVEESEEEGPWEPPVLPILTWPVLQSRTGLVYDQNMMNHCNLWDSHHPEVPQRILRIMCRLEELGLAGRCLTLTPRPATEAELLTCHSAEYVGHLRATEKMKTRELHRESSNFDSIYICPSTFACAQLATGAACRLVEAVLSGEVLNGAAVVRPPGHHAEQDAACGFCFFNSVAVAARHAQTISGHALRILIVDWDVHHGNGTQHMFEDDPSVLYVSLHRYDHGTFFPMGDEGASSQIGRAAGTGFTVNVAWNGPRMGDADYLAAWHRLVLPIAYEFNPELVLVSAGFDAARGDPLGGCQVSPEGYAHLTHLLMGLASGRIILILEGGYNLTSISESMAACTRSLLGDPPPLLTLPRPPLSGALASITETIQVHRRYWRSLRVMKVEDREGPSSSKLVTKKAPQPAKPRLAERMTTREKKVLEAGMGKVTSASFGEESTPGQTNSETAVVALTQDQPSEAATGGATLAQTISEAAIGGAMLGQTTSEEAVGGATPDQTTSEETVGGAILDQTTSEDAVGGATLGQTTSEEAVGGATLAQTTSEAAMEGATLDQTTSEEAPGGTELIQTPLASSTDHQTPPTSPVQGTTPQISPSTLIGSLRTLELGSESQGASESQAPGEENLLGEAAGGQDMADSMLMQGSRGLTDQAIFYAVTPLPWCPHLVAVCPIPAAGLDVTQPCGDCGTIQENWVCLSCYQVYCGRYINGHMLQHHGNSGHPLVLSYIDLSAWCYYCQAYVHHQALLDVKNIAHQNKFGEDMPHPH
# Excerpt: (§1) Human HDAC Enzyme Inhibitor Fluor-De-Lys Assay Materials
# Recombinant human HDAC8 (BML-SE145-0100) and HDAC10 (BML-SE559-0050) enzymes, HDAC substrates BML-KI104 and BML-K1178, and HDAC developer solutions BML-KI105 and BML-KI176 were purchased from Enzo Life Sciences. […] HDAC inhibitor suberoylanilide hydroxamic acid (SAHA) was obtained from Indofine and trichostatin A (TSA) was obtained from Sigma-Aldrich.
# (§2) The histone deacetylase activities of HDAC1, HDAC2, HDAC3, HDAC6, and HDAC8 were measured in modified FLUOR DE LYS assays in 384-well format. In this assay, HDAC enzymes are initially incubated with an F-acetyl (or -trifluoroacetyl)-L-lysine-containing substrate with a C-terminal amide having aminomethylcoumarin as the amine component. HDACs cleave the F-acetyl group, rendering the resulting product susceptible to AMC cleavage by trypsin. The released AMC is then detected by its fluorescence.
# (§3) The HDAC3/SMRT assay employed buffer B, consisting of 20 mM HEPES, pH 8.0, 1 mM MgCl2, 50 mM NaCl, 2.7 mM KCl, 0.05% BSA, 0.005% Tween 20, and 10 μM IP4. […] The HDAC8 assay employed buffer D, consisting of 20 mM HEPES, pH 8.0, 1 mM MgCl2, 100 mM NaCl, 20 mM KCl, 0.1% n-octyl-β-D-glucoside (Anatrace) and 0.05% BSA. All steps were performed at room temperature (23° C.). The assay was performed by pre-incubating serial dilutions of test compounds with the target HDAC prior to initiation with substrate. Each compound was titrated in a 10-point dose response, using a 1:3 fold dilution scheme, with 0.15 ul of solution added by ECHO555 to the plate, followed by the addition of 20 μl of the appropriate HDAC isoform diluted in appropriate assay buffer. […] Final conditions used for each assay were: 1. […] The reactions were stopped and developed by addition of 30 ul of HDAC developer solution containing a saturating level of HDAC inhibitor as follows: 1.
# [2] = molecular target: human HDAC1 (Homo sapiens, UniProt Q13547); test: Human HDAC enzyme inhibitor Fluor-De-Lys assay, HDAC1
# Description: as §1, §2, §3
# [3] = molecular target: human HDAC3/SMRT heterodimer (Homo sapiens, UniProt O15379); test: Human HDAC enzyme inhibitor Fluor-De-Lys assay, HDAC3/SMRT
# Description: as §1, §2, §3
# [4] = molecular target: human HDAC2 (Homo sapiens, UniProt Q92769); test: Human HDAC enzyme inhibitor Fluor-De-Lys assay, HDAC2
# Chain of human HDAC2 (Q92769 whole entry): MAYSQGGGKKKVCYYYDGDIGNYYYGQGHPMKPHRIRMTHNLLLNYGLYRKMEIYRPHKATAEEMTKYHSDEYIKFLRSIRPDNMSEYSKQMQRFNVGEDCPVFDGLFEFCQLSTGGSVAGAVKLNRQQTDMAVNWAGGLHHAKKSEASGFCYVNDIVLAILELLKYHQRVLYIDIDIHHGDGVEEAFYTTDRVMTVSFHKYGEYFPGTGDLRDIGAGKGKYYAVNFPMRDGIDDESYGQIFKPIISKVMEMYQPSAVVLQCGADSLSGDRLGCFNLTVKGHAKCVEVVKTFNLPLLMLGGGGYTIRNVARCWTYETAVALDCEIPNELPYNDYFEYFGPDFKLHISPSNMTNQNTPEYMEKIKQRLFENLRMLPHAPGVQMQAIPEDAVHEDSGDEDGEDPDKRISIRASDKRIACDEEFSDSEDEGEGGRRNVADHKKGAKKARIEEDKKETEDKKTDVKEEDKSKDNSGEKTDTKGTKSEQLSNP
# Description: as §1, §2, §3
# Chain of human HDAC1 (Q13547 whole entry): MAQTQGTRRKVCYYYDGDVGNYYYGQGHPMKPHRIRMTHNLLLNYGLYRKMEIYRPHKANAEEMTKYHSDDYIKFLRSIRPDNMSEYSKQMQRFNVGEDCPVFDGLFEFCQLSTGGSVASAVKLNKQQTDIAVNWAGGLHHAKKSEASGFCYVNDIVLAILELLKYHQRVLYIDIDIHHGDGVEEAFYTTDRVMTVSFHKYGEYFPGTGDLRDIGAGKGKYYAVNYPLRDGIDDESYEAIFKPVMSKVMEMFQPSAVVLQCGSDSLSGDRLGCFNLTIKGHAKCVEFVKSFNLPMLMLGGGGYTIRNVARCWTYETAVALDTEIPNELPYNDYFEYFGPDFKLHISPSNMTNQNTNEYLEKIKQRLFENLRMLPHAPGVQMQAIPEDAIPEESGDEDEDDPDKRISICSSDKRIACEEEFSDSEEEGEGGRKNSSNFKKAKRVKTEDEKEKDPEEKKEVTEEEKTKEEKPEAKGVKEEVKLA
# Chain of human HDAC3/SMRT heterodimer (O15379 whole entry): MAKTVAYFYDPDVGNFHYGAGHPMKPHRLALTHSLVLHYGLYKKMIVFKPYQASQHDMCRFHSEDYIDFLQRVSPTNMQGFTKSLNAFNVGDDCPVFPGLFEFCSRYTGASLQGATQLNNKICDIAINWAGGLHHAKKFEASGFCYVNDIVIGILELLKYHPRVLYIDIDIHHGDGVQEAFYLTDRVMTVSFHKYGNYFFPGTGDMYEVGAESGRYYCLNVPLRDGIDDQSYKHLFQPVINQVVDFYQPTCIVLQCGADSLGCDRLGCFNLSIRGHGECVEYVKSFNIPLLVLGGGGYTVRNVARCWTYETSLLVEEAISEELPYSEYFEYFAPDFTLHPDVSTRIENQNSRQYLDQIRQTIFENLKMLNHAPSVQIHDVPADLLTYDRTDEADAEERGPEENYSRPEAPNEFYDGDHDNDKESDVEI
# Chain of human HDAC3/SMRT heterodimer (Q9Y618 1-899 partner limits assumed): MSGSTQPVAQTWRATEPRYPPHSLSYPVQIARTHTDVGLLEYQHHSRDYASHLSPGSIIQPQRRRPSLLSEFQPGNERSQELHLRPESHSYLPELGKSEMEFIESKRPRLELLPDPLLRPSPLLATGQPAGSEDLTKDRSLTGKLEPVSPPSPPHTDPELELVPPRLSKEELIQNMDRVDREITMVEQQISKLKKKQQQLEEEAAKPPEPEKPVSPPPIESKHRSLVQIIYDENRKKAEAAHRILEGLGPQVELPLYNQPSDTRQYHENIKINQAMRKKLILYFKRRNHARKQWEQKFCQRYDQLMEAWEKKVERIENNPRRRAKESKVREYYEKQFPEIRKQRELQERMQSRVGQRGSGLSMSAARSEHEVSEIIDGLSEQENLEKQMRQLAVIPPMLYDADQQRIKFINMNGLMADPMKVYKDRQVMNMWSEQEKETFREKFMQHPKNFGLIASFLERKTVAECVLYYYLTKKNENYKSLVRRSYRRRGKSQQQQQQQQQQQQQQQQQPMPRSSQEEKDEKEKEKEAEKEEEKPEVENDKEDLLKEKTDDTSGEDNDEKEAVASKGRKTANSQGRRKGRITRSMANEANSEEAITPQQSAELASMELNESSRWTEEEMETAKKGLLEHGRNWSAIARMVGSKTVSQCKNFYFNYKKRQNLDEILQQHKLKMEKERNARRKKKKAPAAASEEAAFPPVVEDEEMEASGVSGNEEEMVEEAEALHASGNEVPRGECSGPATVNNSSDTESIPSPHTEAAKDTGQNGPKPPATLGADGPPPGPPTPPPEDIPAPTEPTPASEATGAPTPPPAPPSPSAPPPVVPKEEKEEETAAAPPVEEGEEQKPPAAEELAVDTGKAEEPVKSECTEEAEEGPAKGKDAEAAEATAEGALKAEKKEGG
IC50 [1],IC50 [2],IC50 [3],IC50 [4],SMILES
≥ 45 µM,–,–,–,"Nc1cc(F)c(F)cc1C(=O)NCCCC[C@H](NC(=O)c1cncs1)c1ncc(-c2ccc3ccccc3c2)[nH]1 [Example 27, (S)-N-(5-(2-amino-4,5-difluorobenzamido)-1-(5-(naphthalen-2-yl)-1H-imidazol-2-yl)pentyl)thiazole-5-carboxamide]"
≥ 45 µM,–,–,–,"CSc1cc(F)ccc1C(=O)NCCCC[C@H](NC(=O)c1cncs1)c1ncc(-c2ccc3ccccc3c2)[nH]1 [Example 5, (S)-N-(5-(4-fluoro-2-(methylthio)benzamido)-1-(5-(naphthalen-2-yl)-1H-imidazol-2-yl)pentyl)thiazole-5-carboxamide]"
–,≥ 45 µM,7 µM,≥ 45 µM,"CSc1cc([N+](=O)[O-])ccc1C(=O)NCCCC[C@H](NC(=O)c1cncs1)c1ncc(-c2ccc3ccccc3c2)[nH]1 [Example 43, (S)-N-(5-(2-(methylthio)-4-nitrobenzamido)-1-(5-(naphthalen-2-yl)-1H-imidazol-2-yl)pentyl)thiazole-5-carboxamide]"
–,≥ 45 µM,0.958 µM,≥ 45 µM,COc1nc2ccccc2cc1-c1cnc(C2(CCCCNC(=O)c3ccc(F)cc3SC)CCC(=O)N2)[nH]1 (centres unmarked) [Example 63]
≥ 45 µM,–,–,–,"COc1nc2ccccc2cc1-c1cnc([C@H](CCCCNC(=O)c2nc(C)ccc2O)NC(=O)c2cncs2)[nH]1 [Example 61, (S)-N-(5-(3-hydroxy-6-methylpicolinamido)-1-(5-(2-methoxyquinolin-3-yl)-1H-imidazol-2-yl)pentyl)thiazole-5-carboxamide]"
11.6 µM,–,–,–,"CCN1CCC2(CC1)C[C@@H]2C(=O)N[C@@H](CCCCNC(=O)c1ccccc1SC)c1ncc(-c2cc3ccccc3nc2OC)[nH]1 [Example 60, (S)-6-ethyl-N-((S)-1-(5-(2-methoxyquinolin-3-yl)-1H-imidazol-2-yl)-5-(2-(methylthio)benzamido)pentyl)-6-azaspiro[2.5]octane-1-carboxamide]"
–,≥ 45 µM,0.671 µM,≥ 45 µM,"COc1nc2ccccc2cc1-c1cnc(C2(CCCCNC(=O)c3ccccc3SC)CCC(=O)N2)[nH]1 (centres unmarked) [Example 62, N-(4-(2-(5-(2-methoxyquinolin-3-yl)-1H-imidazol-2-yl)-5-oxopyrrolidin-2-yl)butyl)-2-(methylthio)benzamide]"
–,≥ 45 µM,0.379 µM,≥ 45 µM,"COc1ccc2[nH]c(C)c(C(C)C(=O)N[C@@H](CCCCNC(=O)c3ccccc3SC)c3ncc(-c4cc5ccccc5nc4OC)[nH]3)c2c1 (stereo partly drawn) [Example 58, N-((5S)-5-(2-(5-methoxy-2-methyl-1H-indol-3-yl)propanamido)-5-(5-(2-methoxyquinolin-3-yl)-1H-imidazol-2-yl)pentyl)-2-(methylthio)benzamide]"
≥ 45 µM,7.88 µM,0.1 µM,15.7 µM,"Nc1ccc(F)c(F)c1C(=O)NCCCC[C@H](NC(=O)c1cncs1)c1ncc(-c2ccc3ccccc3c2)[nH]1 [Example 9, (S)-N-(5-(6-amino-2,3-difluorobenzamido)-1-(5-(naphthalen-2-yl)-1H-imidazol-2-yl)pntyl)thiazole-5-carboxamide]"
